In ChEMBL document CHEMBL1133403 (Bioorg Med Chem Lett, 2000):

Experiments:
Progesterone receptor [1] = target: T1, Progesterone receptor (Homo sapiens, UniProt P06401); assay: Human progesterone receptor (hPR) agonist activity in T47D human breast cancer cell line; NA=not active; type: functional, cell-based
T1 sequence (P06401 whole entry): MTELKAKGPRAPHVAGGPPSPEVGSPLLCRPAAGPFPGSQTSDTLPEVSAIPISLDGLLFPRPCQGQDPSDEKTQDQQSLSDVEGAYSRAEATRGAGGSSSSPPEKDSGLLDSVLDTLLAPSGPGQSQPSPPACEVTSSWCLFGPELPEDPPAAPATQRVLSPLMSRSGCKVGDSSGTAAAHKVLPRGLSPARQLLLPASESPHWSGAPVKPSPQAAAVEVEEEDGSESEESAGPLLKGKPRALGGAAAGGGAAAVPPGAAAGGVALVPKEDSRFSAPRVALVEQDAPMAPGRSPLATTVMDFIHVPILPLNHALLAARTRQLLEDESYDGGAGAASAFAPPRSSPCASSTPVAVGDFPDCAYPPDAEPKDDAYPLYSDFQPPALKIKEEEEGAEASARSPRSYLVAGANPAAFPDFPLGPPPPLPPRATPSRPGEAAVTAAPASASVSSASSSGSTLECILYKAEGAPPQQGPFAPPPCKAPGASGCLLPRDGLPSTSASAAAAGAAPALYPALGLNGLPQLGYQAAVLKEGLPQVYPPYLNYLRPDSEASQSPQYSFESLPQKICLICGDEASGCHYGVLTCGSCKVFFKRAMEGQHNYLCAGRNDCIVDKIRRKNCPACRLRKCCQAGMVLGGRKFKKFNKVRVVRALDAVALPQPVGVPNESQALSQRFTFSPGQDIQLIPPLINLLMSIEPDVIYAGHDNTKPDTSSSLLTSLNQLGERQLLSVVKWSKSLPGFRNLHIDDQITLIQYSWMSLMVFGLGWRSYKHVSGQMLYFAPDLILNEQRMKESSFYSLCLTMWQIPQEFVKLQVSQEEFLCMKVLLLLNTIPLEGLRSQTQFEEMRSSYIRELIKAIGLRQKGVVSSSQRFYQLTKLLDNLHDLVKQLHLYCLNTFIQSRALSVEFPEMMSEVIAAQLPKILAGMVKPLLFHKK

Progesterone receptor [2] = target: T1, Progesterone receptor; assay: Human progesterone receptor (hPR) agonist activity using cotransfection assay in CV-1 cells.; type: functional, cell-based
Progesterone receptor [3] = target: T1, Progesterone receptor; assay: Antagonist activity against human progesterone receptor (hPR) in T47D human breast cancer cell line; type: functional, cell-based
Progesterone receptor [4] = target: T1, Progesterone receptor; assay: Antagonist activity against human progesterone receptor (hPR) using cotransfection assay in CV-1 cells; type: functional, cell-based
Progesterone receptor [5] = target: T1, Progesterone receptor; assay: Binding affinity against human progesterone receptor (hPR) in a competitive binding assay
Progesterone receptor [6] = target: T1, Progesterone receptor; assay: Human progesterone receptor (hPR) agonist activity in T47D human breast cancer cell line; type: functional, cell-based
Glucocorticoid receptor = target: T2, Glucocorticoid receptor (Homo sapiens, UniProt P04150); assay: Cross-reactivity as binding to human glucocorticoid receptor (hGR); type: functional
T2 sequence (P04150 whole entry): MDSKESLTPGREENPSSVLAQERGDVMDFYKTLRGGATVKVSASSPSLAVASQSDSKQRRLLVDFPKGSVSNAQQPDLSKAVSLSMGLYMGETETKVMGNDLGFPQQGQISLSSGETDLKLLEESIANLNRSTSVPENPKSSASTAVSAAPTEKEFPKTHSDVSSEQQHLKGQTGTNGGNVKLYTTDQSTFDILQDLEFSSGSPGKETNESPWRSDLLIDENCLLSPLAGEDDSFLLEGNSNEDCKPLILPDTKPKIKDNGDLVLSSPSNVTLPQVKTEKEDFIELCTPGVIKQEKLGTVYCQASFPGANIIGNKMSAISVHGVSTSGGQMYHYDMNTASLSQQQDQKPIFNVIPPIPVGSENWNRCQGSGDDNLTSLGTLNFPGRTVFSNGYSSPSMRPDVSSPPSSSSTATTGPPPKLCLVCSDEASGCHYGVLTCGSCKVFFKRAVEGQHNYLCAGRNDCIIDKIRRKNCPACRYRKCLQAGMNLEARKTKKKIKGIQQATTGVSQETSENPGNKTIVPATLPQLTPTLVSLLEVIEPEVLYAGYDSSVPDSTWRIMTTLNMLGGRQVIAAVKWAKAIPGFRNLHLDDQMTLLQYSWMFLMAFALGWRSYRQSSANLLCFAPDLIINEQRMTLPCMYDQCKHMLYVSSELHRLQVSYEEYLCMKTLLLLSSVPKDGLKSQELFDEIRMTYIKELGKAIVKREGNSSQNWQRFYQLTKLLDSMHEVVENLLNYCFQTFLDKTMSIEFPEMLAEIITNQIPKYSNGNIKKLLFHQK

Progesterone receptor [7] = target: T1, Progesterone receptor; assay: Human progesterone receptor (hPR) agonist activity expressed in CV-1 cells; type: functional, cell-based
[8] = target: T3, Mineralocorticoid receptor (Homo sapiens, UniProt P08235); assay: Cross-reactivity as binding to human mineralocorticoid receptor (hMR); type: functional
T3 sequence (P08235 whole entry): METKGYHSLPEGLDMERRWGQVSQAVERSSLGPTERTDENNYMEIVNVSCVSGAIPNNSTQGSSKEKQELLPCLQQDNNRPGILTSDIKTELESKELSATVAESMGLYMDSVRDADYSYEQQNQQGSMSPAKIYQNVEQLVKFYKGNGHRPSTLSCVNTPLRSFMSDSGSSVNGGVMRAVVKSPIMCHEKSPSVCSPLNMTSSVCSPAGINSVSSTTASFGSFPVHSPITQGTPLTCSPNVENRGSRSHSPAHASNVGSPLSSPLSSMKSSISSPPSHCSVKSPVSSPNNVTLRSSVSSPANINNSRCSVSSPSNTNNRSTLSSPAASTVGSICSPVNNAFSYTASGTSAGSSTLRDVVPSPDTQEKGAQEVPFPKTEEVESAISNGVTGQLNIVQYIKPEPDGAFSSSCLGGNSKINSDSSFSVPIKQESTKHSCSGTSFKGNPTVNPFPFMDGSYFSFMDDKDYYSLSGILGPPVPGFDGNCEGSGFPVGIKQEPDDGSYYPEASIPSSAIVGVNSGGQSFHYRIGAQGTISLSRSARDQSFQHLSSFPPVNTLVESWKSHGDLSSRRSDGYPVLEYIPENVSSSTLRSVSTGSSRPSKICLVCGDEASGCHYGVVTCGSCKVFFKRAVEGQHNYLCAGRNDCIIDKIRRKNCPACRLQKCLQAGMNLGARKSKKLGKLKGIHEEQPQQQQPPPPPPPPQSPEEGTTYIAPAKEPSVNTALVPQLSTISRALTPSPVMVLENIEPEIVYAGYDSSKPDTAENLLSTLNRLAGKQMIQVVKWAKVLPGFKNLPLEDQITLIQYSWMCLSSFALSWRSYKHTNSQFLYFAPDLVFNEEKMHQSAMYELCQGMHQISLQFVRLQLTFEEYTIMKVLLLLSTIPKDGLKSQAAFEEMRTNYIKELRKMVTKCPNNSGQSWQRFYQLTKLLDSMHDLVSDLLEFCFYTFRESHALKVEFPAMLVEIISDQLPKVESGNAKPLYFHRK

Androgen receptor = target: T4, Androgen receptor (Homo sapiens, UniProt P10275); assay: Cross-reactivity as binding to human androgen receptor (hAR); type: functional
T4 sequence (P10275 whole entry): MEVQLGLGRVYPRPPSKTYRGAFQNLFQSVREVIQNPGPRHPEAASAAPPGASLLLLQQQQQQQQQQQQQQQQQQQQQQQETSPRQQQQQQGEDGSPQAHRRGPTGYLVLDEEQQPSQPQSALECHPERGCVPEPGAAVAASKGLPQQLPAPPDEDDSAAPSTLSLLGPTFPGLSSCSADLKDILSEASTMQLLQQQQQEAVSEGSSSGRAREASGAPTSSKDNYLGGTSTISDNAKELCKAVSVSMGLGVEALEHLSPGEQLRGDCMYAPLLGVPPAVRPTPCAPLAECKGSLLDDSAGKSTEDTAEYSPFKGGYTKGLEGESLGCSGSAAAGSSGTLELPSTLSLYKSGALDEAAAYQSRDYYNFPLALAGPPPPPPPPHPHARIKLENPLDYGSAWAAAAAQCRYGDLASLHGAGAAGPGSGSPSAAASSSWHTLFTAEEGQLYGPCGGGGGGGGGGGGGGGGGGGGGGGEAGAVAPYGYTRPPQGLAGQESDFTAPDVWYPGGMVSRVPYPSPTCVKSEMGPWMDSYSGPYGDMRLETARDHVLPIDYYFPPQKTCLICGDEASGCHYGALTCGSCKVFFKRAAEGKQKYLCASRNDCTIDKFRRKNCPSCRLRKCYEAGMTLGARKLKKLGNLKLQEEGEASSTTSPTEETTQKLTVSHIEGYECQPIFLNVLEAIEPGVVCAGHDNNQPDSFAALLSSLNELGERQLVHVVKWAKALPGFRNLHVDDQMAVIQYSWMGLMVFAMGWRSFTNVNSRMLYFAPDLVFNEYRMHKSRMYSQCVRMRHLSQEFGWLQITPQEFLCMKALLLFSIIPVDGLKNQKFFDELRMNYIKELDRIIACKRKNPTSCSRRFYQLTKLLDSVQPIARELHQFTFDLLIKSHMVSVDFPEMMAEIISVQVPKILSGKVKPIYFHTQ

Structure (SMILES): CC1=CC(C)(C)Nc2ccc(-c3sccc3C)cc21
- EC50 (Progesterone receptor [1]): Not Active
- EC50 (Progesterone receptor [2]): Not Active
- IC50 (Progesterone receptor [3]): 105 nM
- IC50 (Progesterone receptor [4]): 232 nM
- Ki (Progesterone receptor [5]): 25 nM

Structure (SMILES): CC1=CC(C)(C)Nc2ccc(-c3csc(C=O)c3)cc21
- EC50 (Progesterone receptor [1]): Not Active
- EC50 (Progesterone receptor [2]): Not Active
- IC50 (Progesterone receptor [3]): 102 nM
- IC50 (Progesterone receptor [4]): 245 nM
- Ki (Progesterone receptor [5]): 37 nM

Structure (SMILES): CC1=CC(C)(C)Nc2ccc(-c3sc(C#N)cc3Br)cc21
- EC50 (Progesterone receptor [6]): 700 nM
- EC50 (Progesterone receptor [2]): Not Active
- IC50 (Progesterone receptor [3]): 120 nM
- IC50 (Progesterone receptor [4]): 52 nM
- Ki (Progesterone receptor [5]): 433 nM

Structure (SMILES): CC1=CC(C)(C)Nc2ccc(-c3cc(C#N)sc3C)cc21
- EC50 (Progesterone receptor [6]): 1400 nM
- EC50 (Progesterone receptor [2]): Not Active
- IC50 (Progesterone receptor [3]): 120 nM
- IC50 (Progesterone receptor [4]): 109 nM
- Ki (Progesterone receptor [5]): 31 nM

Structure (SMILES): CC1=CC(C)(C)Nc2ccc(-c3ccc(Cl)s3)cc21
- EC50 (Progesterone receptor [6]): 2650 nM
- EC50 (Progesterone receptor [2]): Not Active
- IC50 (Progesterone receptor [3]): 151 nM
- IC50 (Progesterone receptor [4]): 43 nM
- Ki (Progesterone receptor [5]): 12 nM

Structure (SMILES): CC1=CC(C)(C)Nc2ccc(-c3cc(Br)c(C#N)s3)cc21
- EC50 (Progesterone receptor [1]): Not Active
- EC50 (Progesterone receptor [2]): Not Active
- IC50 (Progesterone receptor [3]): 250 nM
- IC50 (Progesterone receptor [4]): 242 nM
- Ki (Progesterone receptor [5]): 249 nM

Structure (SMILES): CC1=CC(C)(C)Nc2ccc(-c3c(C)sc(C#N)c3C)cc21
- EC50 (Progesterone receptor [6]): 580 nM
- EC50 (Progesterone receptor [2]): Not Active
- IC50 (Progesterone receptor [3]): 150 nM
- IC50 (Progesterone receptor [4]): 124 nM
- Ki (Progesterone receptor [5]): 36 nM

Structure (SMILES): Cc1cc(C#N)sc1-c1ccc2c(c1)C(C)(C)C(=O)C(C)(C)N2
- IC50 (Glucocorticoid receptor): 35 nM
- EC50 (Progesterone receptor [7]): 350 nM
- IC50 [8]: 2100 nM
- IC50 (Progesterone receptor [4]): 10 nM
- Ki (Progesterone receptor [5]): 3.9 nM
- IC50 (Androgen receptor): 150 nM

Structure (SMILES): CC1=CC(C)(C)Nc2ccc(-c3cccs3)cc21
- EC50 (Progesterone receptor [1]): Not Active
- EC50 (Progesterone receptor [2]): Not Active
- IC50 (Progesterone receptor [3]): 700 nM
- IC50 (Progesterone receptor [4]): 416 nM
- Ki (Progesterone receptor [5]): 237 nM

Structure (SMILES): CC1=CC(C)(C)Nc2ccc(-c3ccsc3C#N)cc21
- EC50 (Progesterone receptor [1]): Not Active
- EC50 (Progesterone receptor [2]): Not Active
- IC50 (Progesterone receptor [3]): 278 nM
- IC50 (Progesterone receptor [4]): 318 nM
- Ki (Progesterone receptor [5]): > 100 nM

Structure (SMILES): CN(C)c1ccc([C@H]2C[C@]3(C)[C@@H](CC[C@]3(O)CCCO)[C@@H]3CCC4=CC(=O)CCC4=C32)cc1 [ONAPRISTONE]
- EC50 (Progesterone receptor [1]): Not Active
- EC50 (Progesterone receptor [2]): Not Active

Structure (SMILES): CC1=CC(C)(C)Nc2ccc(-c3sc(C#N)cc3C)cc21
- IC50 (Glucocorticoid receptor): 780 nM
- EC50 (Progesterone receptor [6]): 500 nM
- IC50 [8]: 2000 nM
- EC50 (Progesterone receptor [2]): Not Active
- IC50 (Progesterone receptor [3]): 123 nM
- IC50 (Progesterone receptor [4]): 33 nM
- Ki (Progesterone receptor [5]): 26 nM
- IC50 (Androgen receptor): 200 nM

Structure (SMILES): CC1=CC(C)(C)Nc2ccc(-c3ccc(Br)s3)cc21
- EC50 (Progesterone receptor [1]): Not Active
- EC50 (Progesterone receptor [2]): Not Active
- IC50 (Progesterone receptor [3]): 71 nM
- IC50 (Progesterone receptor [4]): 65 nM
- Ki (Progesterone receptor [5]): 31 nM

Structure (SMILES): Cc1cc(C#N)sc1-c1ccc2c(c1)C(C)CC(C)(C)N2 (configuration not stated)
- IC50 [8]: 1000 nM
- IC50 (Androgen receptor): 45 nM

Structure (SMILES): CC1=CC(C)(C)Nc2ccc(-c3cc(Br)cs3)cc21
- EC50 (Progesterone receptor [6]): 3500 nM
- IC50 (Progesterone receptor [3]): 190 nM
- IC50 (Progesterone receptor [4]): 105 nM
- Ki (Progesterone receptor [5]): 32 nM

Structure (SMILES): CC1=CC(C)(C)Nc2ccc(-c3ccc(C=O)s3)cc21
- EC50 (Progesterone receptor [1]): Not Active
- EC50 (Progesterone receptor [2]): Not Active
- IC50 (Progesterone receptor [3]): 78 nM
- IC50 (Progesterone receptor [4]): 729 nM
- Ki (Progesterone receptor [5]): 80 nM
